Where two headings read alike, the source gives them in different places.
Experiments:
[1] = test system: MDM2 pre-mRNA splicing in Rh18 cells; experiment: RT-PCR confirmation of splicing changes, MDM2; type: cell-based; details: 4 h, SD6 10 μM, compound 1 10 μM, compound 2 5 μM, compound 3 10 μM
Description: RH-18 cells were cultured in RPMI 1640 medium containing 10% FCS. Cells are all maintained in humidified incubator with 5% CO2 at 37°C. Rh18 cells were exposed to 0.5% DMSO or SD6 10 μM, Cpd1 10 μM, Cpd2 5 μM or Cpd3 10 μM for 4 h. Total RNA was extracted and converted to cDNA. PCR was performed using NEB Q5 Master Mix and specific primers listed below (Table 2) according to the manufacturer’s instruction and standard PCR protocols: 50 ng cDNA and 30 μl of the final reaction volume was used. PCR products were subjected to 3% agarose gel electrophoresis.
AS patterns were identified with compound treatment for MDM2 and RBM39 transcripts. Ubiquitin (UBQ) transcripts were used as a control since these are not spliced. […] Rh18 cells were treated with either DMSO control or compounds for 4 h. Total RNA was extracted and converted to cDNA. PCR was performed using corresponding primers and PCR products were subjected to 3% agarose gel electrophoresis.

phosphorylation of SF3B1 = experiment: Western blot of nuclear extracts, phosphor-SF3B1; details: 4 h
Description: (§3) HCT116 cells were seeded at 3 million cells per 100 mm culture plate. The next day cells were treated with 5 μM or 10 μM of each compound for 4h and 8h. […] The pellet was snap frozen on dry ice and then thawed and spun at 12K rpm for 5 min, 4C. The supernatant was collected (nuclear extract) and protein concentrations determined using BCA Protein Assay Kit. […] The proteins were transferred to PVDF membrane using a wet transfer system. […] After the secondary antibody incubation, membranes were washed 4X with PBS containing 0.1% Tween-20 and 1X with PBS before imaging using the Li-Cor Odyssey imaging system.
(§4) Lanes 6 to 10 are nuclear extracts from Rh18 cells.

SF3B1 = target: T1, SF3B1 (Homo sapiens, UniProt O75533+Q7RTV0); experiment: Competitive antagonist assay (TESLR in the presence of SD6 or hit compound); type: cell-based; details: 6 μM compound for one hour, then serial dilutions of sudemycinol C for another 4 hours
T1 construct: endogenous in cells
Description: SK-MEL-2/Luc-MDM2 stable cells were plated at a density of 20,000 cells/well in 96-well plates and incubated overnight at 37°C in 5% CO2.[27, 28] The following day, cells were treated with 14 analogs using serial dilution for one hour. The list of compounds screened as potential TESLR antagonists are show in SI file. After one-hour pre-treatment, 4 μM of SD6 were added to the pre-treated cells for another 4 hours. Either 0.5% DMSO or serial dilutions of SD6 were used to treat cells for 4 hours as controls. At the end of incubation time, ONE-Glo™ EX reagents (Promega) were added to measure the luciferase activity. […]
Fig 6 Competitive antagonist assay. (Left Panel) The assay that identified two antagonists of SD6 activity in the TESLR screen, which are useful for the determination of SF3B1 binding. Relative luminescent units were plotted against corresponding drug concentrations and fitted with a standard four parameter sigmoidal curve with GraphPad Prism. (Right Panel) The structures of the antagonists and SD6. See SI for chemistry details.
. SK-MEL-2/Luc-MDM2 stable cells were plated at a density of 20000/well in 96-well plates and incubated overnight at 37°C in 5% CO2. […]. After one-hour pre-treatment, serial dilutions of the sudemycinol C were added to the pre-treated cells for another 4 hours. […]. At the end of incubation time, ONE-Glo™ EX reagents (Promega) were added to measure the luciferase activity. […]. DR: dose response.

[2] = test system: triple-exon skipping of MDM2 pre-mRNA in SK-MEL-2/Luc-MDM2 cells; experiment: TESLR (Triple Exon Skipping Luciferase Reporter) dose response; details: for EC50: read-out: TESLR EC50; for TESLR Maximum fold change: 4 hours
Description: SK-MEL-2/MDM2-Luc stable cells were cultured in MEM medium with Earle's salts and L-glutamine containing 1 mM sodium pyruvate, 10% FCS and 10 mM Hepes and plated at a density of 10,000/well in 96-well plates and incubated overnight at 37°C in 5% CO2. The following day, cells were treated with serial dilutions of compounds for 4 hrs, ONE-Glo reagents (Promega) were added to measure the luciferase activity on an EnVision plate reader. SD6 and 0.5% DMSO were used as positive and negative controls, respectively. Relative luminescent units were plotted against corresponding drug concentrations and fitted with a standard four parameter sigmoidal curve with GraphPad Prism.
The TESLR assay in SK-MEL-2/Luc-MDM2 cells with 4 hour treatment. SK-MEL-2/Luc-MDM2 stable cells were plated at a density of 20,000 cells/well in 96-well plates and incubated overnight at 37°C in 5% CO2. The following day, cells were treated with either 0.5% DMSO or serial dilution of hits identified from the library screen in 0.5% DMSO for 4 hours. ONE-Glo™ EX reagent (Promega) was added to measure the luciferase activity using an EnVision plate reader. Relative luminescent units were plotted against corresponding drug concentrations and fitted with a standard four parameter sigmoidal curve with GraphPad Prism.
SK-MEL-2/Luc-MDM2 stable cells were plated at a density of 20,000 cells/well in 96-well plates and incubated overnight at 37°C in 5% CO2. The following day, cells were treated with serial dilutions of the indicated compounds for 4 hours and ONE-Glo™ EX reagents (Promega) were added to measure the luciferase activity.

SRPK2 (h) = target: T2, SRPK2 (h) (Homo sapiens, UniProt P78362); experiment: Radiometric protein kinase assay (Eurofins); type: biochemical; details: ATP 10 μM
T2 construct: purchased Eurofins, Dundee, Scotland
Description: (§1) Enzymatic biochemical activities were evaluated in radiometric protein kinase assays (Eurofins, Dundee, Scotland). Kinases are incubated with buffer, substrate and [γ-^33P]-ATP (specific activity approx. 500 cpm/pmol, concentration as required). The reaction is initiated by the addition of the MgATP mix. After incubation for 40 minutes at room temperature, the reaction is stopped by the addition of 3% phosphoric acid solution. 10 μL of the reaction is then spotted onto a P30 filtermat and washed three times for 5 minutes in 75 mM phosphoric acid and once in methanol prior to drying and scintillation counting. All compounds are prepared to 50x final assay concentration in 100% DMSO. Positive control wells contain all components of the reaction with 2% DMSO. Blank wells contain all components of the reaction, with a reference inhibitor replacing the compound of interest. Each kinase is assigned a standard assay concentration of ATP within 20 μM of its apparent Km. Compounds were screened at 1 μM in duplicate or tested at 10 concentrations at half log dilution starting from 10 μM in singlicate. Dose response curves were fitted with four parameter logistic curve to obtain IC50 values. […]
(§2) Staurosporine is used as reference for all tested enzymes except for SRPK3 (reference inhibitor: K-252a. Nocardiopsis sp), NEK2 (reference inhibitor: […]), and CK2, CK2α2, MAPK1, MAPK2 (reference inhibitor: PKR Inhibitor). See Table 1 below for additional details.

DYRK2 (h) = target: T3, DYRK2 (h) (Homo sapiens, UniProt Q92630); experiment: Radiometric protein kinase assay (Eurofins); type: biochemical; details: ATP 15 μM
T3 construct: purchased Eurofins, Dundee, Scotland
T3 sequence (Q92630 1-601): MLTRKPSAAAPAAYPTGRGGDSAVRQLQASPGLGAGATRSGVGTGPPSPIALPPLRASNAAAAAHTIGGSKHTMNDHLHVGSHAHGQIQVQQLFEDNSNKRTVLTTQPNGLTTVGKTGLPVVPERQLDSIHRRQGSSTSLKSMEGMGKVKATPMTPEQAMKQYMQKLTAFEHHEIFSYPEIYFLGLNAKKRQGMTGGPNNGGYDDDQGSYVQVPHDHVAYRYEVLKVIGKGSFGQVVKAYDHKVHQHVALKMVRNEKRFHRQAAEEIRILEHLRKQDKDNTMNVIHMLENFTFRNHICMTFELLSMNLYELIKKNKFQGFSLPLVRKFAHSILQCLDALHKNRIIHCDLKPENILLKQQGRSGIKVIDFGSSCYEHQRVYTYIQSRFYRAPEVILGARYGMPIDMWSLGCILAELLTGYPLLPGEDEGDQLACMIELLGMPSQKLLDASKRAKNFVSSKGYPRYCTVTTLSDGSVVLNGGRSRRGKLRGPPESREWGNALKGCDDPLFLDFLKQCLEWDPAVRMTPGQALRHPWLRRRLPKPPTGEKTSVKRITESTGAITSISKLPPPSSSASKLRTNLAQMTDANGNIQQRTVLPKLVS
Description: as §1, §2

GSK3α(h) = target: T4, GSK3α(h) (Homo sapiens, UniProt P49840); experiment: Radiometric protein kinase assay (Eurofins); type: biochemical; details: ATP 10 μM
T4 construct: purchased Eurofins, Dundee, Scotland
Description: as §1, §2

MAPK1 (h) = target: T5, MAPK1 (h) (Homo sapiens, UniProt P27361); experiment: Radiometric protein kinase assay (Eurofins); type: biochemical
T5 construct: purchased Eurofins, Dundee, Scotland
Description: as §1, §2

CLK1(h) = target: T6, CLK1(h) (Homo sapiens, UniProt P49759); experiment: Radiometric protein kinase assay (Eurofins); type: biochemical; details: ATP 10 μM
T6 construct: purchased Eurofins, Dundee, Scotland
Description: as §1, §2

CK2α2 (h) = target: T7, CK2α2 (h) (Homo sapiens, UniProt P19784); experiment: Radiometric protein kinase assay (Eurofins); type: biochemical; details: ATP 10 μM; read-out: CK2a2 IC50
T7 construct: purchased Eurofins, Dundee, Scotland
Description: as §1, §2

DYRK1A(h) = target: T8, DYRK1A(h) (Homo sapiens, UniProt Q13627); experiment: Radiometric protein kinase assay (Eurofins); type: biochemical; details: ATP 45 μM
T8 construct: purchased Eurofins, Dundee, Scotland
Description: as §1, §2

CLK3(h) = target: T9, CLK3(h) (Homo sapiens, UniProt P49761); experiment: Radiometric protein kinase assay (Eurofins); type: biochemical; details: ATP 90 μM
T9 construct: purchased Eurofins, Dundee, Scotland
Description: as §1, §2

CLK4(h) = target: T10, CLK4(h) (Homo sapiens, UniProt Q9HAZ1); experiment: Radiometric protein kinase assay (Eurofins); type: biochemical; details: ATP 10 μM
T10 construct: purchased Eurofins, Dundee, Scotland
Description: as §1, §2

AKT3 = target: T11, AKT3 (Homo sapiens, UniProt Q9Y243); experiment: Radiometric protein kinase assay (Eurofins); type: biochemical; details: ATP 45 μM
T11 construct: purchased Eurofins, Dundee, Scotland
Description: as §1, §2

SRPK1(h) = target: T12, SRPK1(h) (Homo sapiens, UniProt Q96SB4); experiment: Radiometric protein kinase assay (Eurofins); type: biochemical; details: ATP 10 μM
T12 construct: purchased Eurofins, Dundee, Scotland
Description: as §1, §2

CK2 (h) = target: T13, CK2 (h) (Homo sapiens, UniProt P68400); experiment: Radiometric protein kinase assay (Eurofins); type: biochemical; details: ATP 10 μM
T13 construct: purchased Eurofins, Dundee, Scotland
Description: as §1, §2

MAPK2 (h) = target: T14, MAPK2 (h) (Homo sapiens, UniProt P28482); experiment: Radiometric protein kinase assay (Eurofins); type: biochemical; details: ATP 155 μM
T14 construct: purchased Eurofins, Dundee, Scotland
Description: as §1, §2

DYRK1B (h) = target: T15, DYRK1B (h) (Homo sapiens, UniProt Q9Y463); experiment: Radiometric protein kinase assay (Eurofins); type: biochemical; details: ATP 45 μM
T15 construct: purchased Eurofins, Dundee, Scotland
Description: as §1, §2

SRPK3 (h) = target: T16, SRPK3 (h) (Homo sapiens, UniProt Q9UPE1); experiment: Radiometric protein kinase assay (Eurofins); type: biochemical; details: ATP 15 μM
T16 construct: purchased Eurofins, Dundee, Scotland
Description: as §1, §2

CDK2/cyclinA (h) = target: T17, CDK2/cyclinA (h) (Homo sapiens, UniProt P24941); experiment: Radiometric protein kinase assay (Eurofins); type: biochemical; details: ATP 45 μM
T17 construct: purchased Eurofins, Dundee, Scotland
Description: Enzymatic biochemical activities were evaluated in radiometric protein kinase assays (Eurofins, Dundee, Scotland). Kinases are incubated with buffer, substrate and [γ-^33P]-ATP (specific activity approx. 500 cpm/pmol, concentration as required). The reaction is initiated by the addition of the MgATP mix. After incubation for 40 minutes at room temperature, the reaction is stopped by the addition of 3% phosphoric acid solution. 10 μL of the reaction is then spotted onto a P30 filtermat and washed three times for 5 minutes in 75 mM phosphoric acid and once in methanol prior to drying and scintillation counting. All compounds are prepared to 50x final assay concentration in 100% DMSO. Positive control wells contain all components of the reaction with 2% DMSO. Blank wells contain all components of the reaction, with a reference inhibitor replacing the compound of interest. […] Compounds were screened at 1 μM in duplicate or tested at 10 concentrations at half log dilution starting from 10 μM in singlicate. Dose response curves were fitted with four parameter logistic curve to obtain IC50 values.

[3] = test system: phosphorylation of SR proteins; experiment: Western blot of nuclear extracts, phosphor-SR proteins; details: HCT116 and Rh18 cells, 4 h; SD6 10 μM, compound 1 10 μM, compound 2 5 μM, compound 3 10 μM
Description: as §3, §4

[4] = SK-MEL-2/Luc-MDM2 cells, 4 hour treatment, luciferase activity
[5] = SK-MEL-2/Luc-MDM2 cells, luciferase activity

T12 sequence (Q96SB4 whole entry): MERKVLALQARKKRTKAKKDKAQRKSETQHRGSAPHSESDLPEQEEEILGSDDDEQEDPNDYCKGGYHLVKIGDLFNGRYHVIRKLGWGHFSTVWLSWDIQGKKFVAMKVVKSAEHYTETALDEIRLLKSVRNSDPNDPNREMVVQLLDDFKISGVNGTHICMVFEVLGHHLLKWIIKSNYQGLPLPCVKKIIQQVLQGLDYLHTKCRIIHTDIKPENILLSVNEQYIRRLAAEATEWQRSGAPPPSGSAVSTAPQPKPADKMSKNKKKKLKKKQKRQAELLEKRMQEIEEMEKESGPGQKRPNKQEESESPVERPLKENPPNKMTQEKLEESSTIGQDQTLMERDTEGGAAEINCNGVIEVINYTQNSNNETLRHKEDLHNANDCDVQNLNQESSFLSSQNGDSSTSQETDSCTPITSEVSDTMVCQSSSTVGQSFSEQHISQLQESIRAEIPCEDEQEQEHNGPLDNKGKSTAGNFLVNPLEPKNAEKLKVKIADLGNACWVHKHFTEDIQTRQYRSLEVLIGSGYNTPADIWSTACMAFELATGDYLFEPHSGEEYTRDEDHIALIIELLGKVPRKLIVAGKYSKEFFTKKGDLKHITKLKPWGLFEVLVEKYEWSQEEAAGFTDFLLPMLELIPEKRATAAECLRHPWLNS
T2 sequence (P78362 whole entry): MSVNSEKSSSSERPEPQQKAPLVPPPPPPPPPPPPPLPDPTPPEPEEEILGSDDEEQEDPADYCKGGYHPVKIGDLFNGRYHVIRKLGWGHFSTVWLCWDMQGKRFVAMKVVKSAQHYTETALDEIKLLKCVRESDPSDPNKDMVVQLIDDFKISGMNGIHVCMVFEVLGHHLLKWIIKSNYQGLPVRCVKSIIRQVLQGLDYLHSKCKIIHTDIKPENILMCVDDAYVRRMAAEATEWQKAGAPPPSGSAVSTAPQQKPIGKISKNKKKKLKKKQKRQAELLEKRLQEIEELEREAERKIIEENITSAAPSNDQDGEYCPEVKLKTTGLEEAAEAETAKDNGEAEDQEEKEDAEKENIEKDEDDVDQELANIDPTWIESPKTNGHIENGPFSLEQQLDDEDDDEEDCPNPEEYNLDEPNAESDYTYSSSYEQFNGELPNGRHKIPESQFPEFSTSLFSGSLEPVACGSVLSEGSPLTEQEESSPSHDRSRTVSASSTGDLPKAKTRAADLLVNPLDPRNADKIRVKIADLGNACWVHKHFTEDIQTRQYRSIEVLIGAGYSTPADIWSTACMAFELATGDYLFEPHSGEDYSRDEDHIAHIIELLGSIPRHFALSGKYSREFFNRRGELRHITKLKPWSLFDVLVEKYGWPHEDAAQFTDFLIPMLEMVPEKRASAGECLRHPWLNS
T14 sequence (P28482 whole entry): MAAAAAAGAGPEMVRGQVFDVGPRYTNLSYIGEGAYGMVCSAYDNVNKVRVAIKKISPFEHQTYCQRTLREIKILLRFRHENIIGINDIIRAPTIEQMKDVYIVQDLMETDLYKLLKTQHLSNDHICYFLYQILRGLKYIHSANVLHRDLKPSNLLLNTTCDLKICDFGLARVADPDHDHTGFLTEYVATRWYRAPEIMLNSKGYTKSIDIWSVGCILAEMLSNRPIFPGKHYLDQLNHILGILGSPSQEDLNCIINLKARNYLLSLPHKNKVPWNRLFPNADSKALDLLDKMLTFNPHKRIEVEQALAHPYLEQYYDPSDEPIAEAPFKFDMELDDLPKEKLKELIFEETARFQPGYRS
T5 sequence (P27361 whole entry): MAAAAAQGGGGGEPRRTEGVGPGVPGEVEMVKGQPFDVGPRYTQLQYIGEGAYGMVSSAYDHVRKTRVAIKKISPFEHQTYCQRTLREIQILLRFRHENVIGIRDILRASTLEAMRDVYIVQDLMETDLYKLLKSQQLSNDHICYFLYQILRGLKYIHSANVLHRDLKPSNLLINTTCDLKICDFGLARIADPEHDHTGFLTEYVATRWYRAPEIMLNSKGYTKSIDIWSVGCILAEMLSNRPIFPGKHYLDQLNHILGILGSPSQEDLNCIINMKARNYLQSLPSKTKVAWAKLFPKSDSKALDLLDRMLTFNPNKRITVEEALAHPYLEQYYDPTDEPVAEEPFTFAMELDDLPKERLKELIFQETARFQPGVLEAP
T15 sequence (Q9Y463 whole entry): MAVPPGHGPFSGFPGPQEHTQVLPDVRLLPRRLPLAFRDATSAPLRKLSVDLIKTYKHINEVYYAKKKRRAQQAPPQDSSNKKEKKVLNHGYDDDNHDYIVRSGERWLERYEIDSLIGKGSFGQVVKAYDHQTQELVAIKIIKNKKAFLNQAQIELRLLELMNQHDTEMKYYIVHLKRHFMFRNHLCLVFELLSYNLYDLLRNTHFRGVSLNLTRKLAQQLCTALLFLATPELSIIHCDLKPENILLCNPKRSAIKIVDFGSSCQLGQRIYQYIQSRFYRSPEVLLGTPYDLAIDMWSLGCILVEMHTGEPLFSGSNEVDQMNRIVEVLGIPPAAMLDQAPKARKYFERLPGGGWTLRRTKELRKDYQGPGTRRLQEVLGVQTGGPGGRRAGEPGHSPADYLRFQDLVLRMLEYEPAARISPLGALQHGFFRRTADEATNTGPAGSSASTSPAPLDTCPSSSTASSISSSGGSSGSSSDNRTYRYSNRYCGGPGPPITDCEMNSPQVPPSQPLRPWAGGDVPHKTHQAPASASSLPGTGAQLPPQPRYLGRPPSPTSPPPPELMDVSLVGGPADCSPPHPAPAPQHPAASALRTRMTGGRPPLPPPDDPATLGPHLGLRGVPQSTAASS
T7 sequence (P19784 whole entry): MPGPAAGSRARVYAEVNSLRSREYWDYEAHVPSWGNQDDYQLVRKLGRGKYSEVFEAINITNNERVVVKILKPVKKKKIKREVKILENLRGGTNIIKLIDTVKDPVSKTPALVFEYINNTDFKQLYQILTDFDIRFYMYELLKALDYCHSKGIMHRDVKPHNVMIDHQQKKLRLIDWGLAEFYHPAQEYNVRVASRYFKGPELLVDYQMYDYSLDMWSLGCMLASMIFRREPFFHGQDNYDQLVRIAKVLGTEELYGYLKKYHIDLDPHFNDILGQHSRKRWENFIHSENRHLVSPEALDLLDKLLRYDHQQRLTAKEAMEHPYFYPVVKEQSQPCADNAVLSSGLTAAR
T13 sequence (P68400 whole entry): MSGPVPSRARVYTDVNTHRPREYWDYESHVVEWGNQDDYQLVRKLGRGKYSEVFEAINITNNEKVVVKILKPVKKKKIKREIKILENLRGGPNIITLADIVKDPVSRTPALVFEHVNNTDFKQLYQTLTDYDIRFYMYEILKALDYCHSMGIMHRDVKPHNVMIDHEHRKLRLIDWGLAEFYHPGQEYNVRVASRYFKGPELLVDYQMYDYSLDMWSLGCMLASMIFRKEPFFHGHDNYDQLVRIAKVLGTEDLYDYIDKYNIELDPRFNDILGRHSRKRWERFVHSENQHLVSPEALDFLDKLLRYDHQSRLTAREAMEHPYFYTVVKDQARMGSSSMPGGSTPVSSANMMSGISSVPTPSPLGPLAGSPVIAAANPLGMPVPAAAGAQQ
T13 sequence (P67870 whole entry partner): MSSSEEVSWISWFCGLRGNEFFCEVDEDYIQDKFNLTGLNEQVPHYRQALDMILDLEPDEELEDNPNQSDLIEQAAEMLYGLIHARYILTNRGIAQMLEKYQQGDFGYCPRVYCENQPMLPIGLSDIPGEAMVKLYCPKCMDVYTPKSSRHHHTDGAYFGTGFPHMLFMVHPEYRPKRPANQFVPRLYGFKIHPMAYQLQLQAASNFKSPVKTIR
T10 sequence (Q9HAZ1 whole entry): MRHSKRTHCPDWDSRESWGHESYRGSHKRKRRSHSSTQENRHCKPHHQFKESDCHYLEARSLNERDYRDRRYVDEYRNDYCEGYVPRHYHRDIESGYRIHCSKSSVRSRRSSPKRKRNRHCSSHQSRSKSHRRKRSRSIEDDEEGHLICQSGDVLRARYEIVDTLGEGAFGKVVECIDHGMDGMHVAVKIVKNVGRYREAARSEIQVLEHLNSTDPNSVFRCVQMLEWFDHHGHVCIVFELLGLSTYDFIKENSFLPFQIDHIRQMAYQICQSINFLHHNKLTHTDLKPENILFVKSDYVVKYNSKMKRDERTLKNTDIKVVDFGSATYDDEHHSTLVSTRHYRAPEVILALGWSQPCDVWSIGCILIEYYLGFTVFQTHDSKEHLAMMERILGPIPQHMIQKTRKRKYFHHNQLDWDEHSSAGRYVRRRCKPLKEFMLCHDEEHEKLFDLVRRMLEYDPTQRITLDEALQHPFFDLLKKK
T4 sequence (P49840 whole entry): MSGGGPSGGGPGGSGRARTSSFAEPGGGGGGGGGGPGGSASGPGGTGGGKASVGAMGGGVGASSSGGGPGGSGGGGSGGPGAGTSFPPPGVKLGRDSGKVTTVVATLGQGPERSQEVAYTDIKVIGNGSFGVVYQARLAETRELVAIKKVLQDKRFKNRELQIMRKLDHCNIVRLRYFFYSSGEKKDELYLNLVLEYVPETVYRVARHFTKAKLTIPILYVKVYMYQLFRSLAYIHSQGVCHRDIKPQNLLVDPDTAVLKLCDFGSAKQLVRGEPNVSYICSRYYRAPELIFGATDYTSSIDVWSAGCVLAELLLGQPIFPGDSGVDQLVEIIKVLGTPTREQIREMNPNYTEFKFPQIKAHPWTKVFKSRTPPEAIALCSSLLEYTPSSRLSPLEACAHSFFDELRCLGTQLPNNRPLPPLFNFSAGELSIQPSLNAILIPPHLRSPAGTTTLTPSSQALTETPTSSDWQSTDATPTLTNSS

CN(c1ncccc1CNc1nc(Nc2ccc3c(c2)CC(=O)N3)ncc1C(F)(F)F)S(C)(=O)=O [Compound 3, PF-562271]
MDM2 alternative splicing (AS) pattern by RT-PCR [1]: dominant MDM2 transcript (the same size as the DMSO control) and an AS isoform of 785 bp
Effect on phosphorylation of SF3B1 (immunoblot) (phosphorylation of SF3B1; HCT116 cells, 10 μM): inhibited the phosphorylation of SF3B1 protein in HCT116 cells
Antagonism of the compound's TESLR activity by sudemycinol C (SF3B1): did not antagonize
EC50 [2, 4]: 5.56 µM
SRPK2 IC50 (SRPK2 (h)): NA (NA: Not Active (less than 50% inhibition at 1 micromolar))
DYRK2 IC50 (DYRK2 (h)): NA (NA: Not Active (less than 50% inhibition at 1 micromolar))
IC50 (GSK3α(h)): 221 nM
MAPK1 IC50 (MAPK1 (h)): NA (NA: Not Active (less than 50% inhibition at 1 micromolar))
IC50 (CLK1(h)): 141 nM
IC50 (CK2α2 (h)): 374 nM
DYRK1A IC50 (DYRK1A(h)): NA (NA: Not Active (less than 50% inhibition at 1 micromolar))
CLK3 IC50 (CLK3(h)): NA (NA: Not Active (less than 50% inhibition at 1 micromolar))
IC50 (CLK4(h)): 155 nM
AKT3 IC50 (AKT3): NA (NA: Not Active (less than 50% inhibition at 1 micromolar))
SRPK1 IC50 (SRPK1(h)): NA (NA: Not Active (less than 50% inhibition at 1 micromolar))
CK2 IC50 (CK2 (h)): NA (NA: Not Active (less than 50% inhibition at 1 micromolar))
IC50 (MAPK2 (h)): 863 nM
DYRK1B IC50 (DYRK1B (h)): NA (NA: Not Active (less than 50% inhibition at 1 micromolar))
SRPK3 IC50 (SRPK3 (h)): NA (NA: Not Active (less than 50% inhibition at 1 micromolar))
IC50 (CDK2/cyclinA (h)): 203 nM

COc1ncc2cc(C(=O)Nc3cc(C(=O)NCc4cccc(Cl)c4)ccc3Cl)c(=O)[nH]c2n1 [Mirk-IN-1]
TESLR Maximum fold change [2, 5]: 30.7
EC50 [2, 4]: 15 µM

CNC(=O)OC(C)C=CC(=O)NC1CCC(CC=C(C)C=CC2CC3(CO3)CC(C)(C)O2)CC1 (stereo not shown) [SD6, sudemycin D6]
MDM2 alternative splicing (AS) pattern by RT-PCR [1]: dominant AS isoform at size of 1019 bp
Effect on phosphorylation of SF3B1 (immunoblot) (phosphorylation of SF3B1; HCT116 and Rh18 cells, SD6 10 μM, compound 1 10 μM, compound 2 5 μM): did inhibit the phosphorylation of SF3B1
Effect on phosphorylation of SR proteins (immunoblot) [3]: did not inhibit the phosphorylation of SR proteins
EC50 ([2]; Homo sapiens, SK-MEL-2, 4 h): 0.862 µM
TESLR Maximum fold change [2, 5]: 28.3

CC(C)(C)c1cnc(CSc2cnc(NC(=O)C3CCNCC3)s2)o1 [SNS-032]
IC50 ([2]; Homo sapiens, SK-MEL-2, 4 h, read-out: TESLR IC50 in inducing triple exon skipping): > 10 µM
